Assay results taken from ChEMBL document CHEMBL3832761, “MMV Pathogen Box Bioactivity Data” (2017).
Converted amounts (≈) assume the structure as drawn.

Legend:
MRC5 = assay: MRC5 CC50 (uM) Cytotoxicity; assay type: functional; details: Homo sapiens
Plasmodium falciparum [1] = assay: Antimalarial activity: Asexual Blood Stage Plasmodium falciparum 3D7 IC50 (uM); assay type: functional, organism-based
Plasmodium berghei = assay: Antimalarial activity: Liver Stage Plasmodium berghei sporozoite Luciferase assay: inhibition at 10 uM (%); assay type: functional
Plasmodium falciparum [2] = assay: Antimalarial activity: Gametocytes Plasmodium falciparum NF54 Gametocytes Stage V: inhibition at 10 uM (%); assay type: functional
Plasmodium falciparum [3] = assay: Antimalarial activity: Asexual Blood Stage Plasmodium falciparum Dd2 IC50 (uM); assay type: functional, organism-based
HepG2 [4] = assay: HepG2 inhibition at 10 uM (%) Cytotoxicity; assay type: functional; details: Homo sapiens
Plasmodium falciparum [5] = assay: Antimalarial activity: Asexual Blood Stage Plasmodium falciparum W2 IC50 (uM); assay type: functional, organism-based
[6] = tested on: Mycobacterium tuberculosis; assay: AntiMycobacterium tuberculosis activity 2-week 7H9/glucose/BSA/Tx MIC (uM); assay type: functional; details: 336 h
[7] = tested on: Mycobacterium tuberculosis; assay: AntiMycobacterium tuberculosis activity 2-week 7H9/DPPC/cholesterol/BSA/Tx MIC (uM); assay type: functional; details: 336 h
[8] = tested on: Mycobacterium tuberculosis; assay: AntiMycobacterium tuberculosis activity Replicating form: Average MIC90 (uM); assay type: functional
[9] = tested on: Mycobacterium tuberculosis; assay: (§1) AntiMycobacterium tuberculosis activity day 10 in 7H9/2.5mM butyrate/pH6/0.1mM nitrite MIC90 (uM); assay type: functional; details: 240 h
[10] = tested on: Mycobacterium tuberculosis; assay: AntiMycobacterium tuberculosis activity day 21 MIC99 in 7H9/2.5mM butyrate/pH6/0.1mM nitrite MIC99 (uM); assay type: functional; details: 504 h
[11] = tested on: Mycobacterium tuberculosis; assay: AntiMycobacterium tuberculosis activity 1-week GAST/Fe MIC (uM); assay type: functional; details: 168 h
[12] = tested on: Mycobacterium tuberculosis; assay: AntiMycobacterium tuberculosis activity 2-week Alamar Blue 7H9/ADC/Tw MIC (uM); assay type: functional; details: 336 h
[13] = tested on: Mycobacterium tuberculosis; assay: AntiMycobacterium tuberculosis activity 2-week 7H9/ADC/Tw MIC (uM); assay type: functional; details: 336 h
[14] = tested on: Mycobacterium tuberculosis; assay: as §1; assay type: functional; details: 240 h; remark: listed apart in the source
[15] = tested on: Mycobacterium tuberculosis; assay: AntiMycobacterium tuberculosis activity 1-week 7H9/DPPC/cholesterol/BSA/Tx MIC (uM); assay type: functional; details: 168 h
[16] = tested on: Mycobacterium tuberculosis; assay: AntiMycobacterium tuberculosis activity Non-Replicating form: Average MIC90 (uM); assay type: functional
[17] = tested on: Mycobacterium tuberculosis; assay: AntiMycobacterium tuberculosis activity 1-week 7H9/cholesterol/BSA/Tx MIC (uM); assay type: functional; details: 168 h
[18] = tested on: Mycobacterium tuberculosis; assay: AntiMycobacterium tuberculosis activity 2-week GAST/Fe MIC (uM); assay type: functional; details: 336 h
HepG2 [19] = assay: HepG2 CC50 (uM) Cytotoxicity; assay type: functional; details: Homo sapiens
[20] = tested on: Mycobacterium tuberculosis; assay: AntiMycobacterium tuberculosis activity 2-week Alamar Blue 7H9/cholesterol/BSA/Tx MIC (uM); assay type: functional; details: 336 h
[21] = tested on: Mycobacterium tuberculosis; assay: AntiMycobacterium tuberculosis activity 1-week 7H9/glucose/BSA/Tx MIC (uM); assay type: functional; details: 168 h
[22] = tested on: Mycobacterium tuberculosis; assay: AntiMycobacterium tuberculosis activity day 21 in 7H9/2.5mM butyrate/pH6/0.1mM nitrite MIC90 (uM); assay type: functional; details: 504 h
[23] = tested on: Mycobacterium tuberculosis; assay: AntiMycobacterium tuberculosis activity 1-week 7H9/ADC/Tw MIC (uM); assay type: functional; details: 168 h
HepG2 [24] = assay: Cytotoxicity data HepG2 CC20 (uM); assay type: functional

Structure (SMILES) | IC50 (Plasmodium falciparum [1]) [nM] | MIC [6] [µM] | MIC [7] [µM] | MIC90 [8] [µM] | MIC90 [9] [µM] | MIC [10] [µM] | MIC [11] [µM] | MIC [12] [µM] | MIC [13] [µM] | MIC90 [14] [µM] | MIC [15] [µM] | MIC90 [16] [µM] | MIC [17] [µM] | MIC [18] [µM] | CC50 (HepG2 [19]) [µM] | MIC [20] [µM] | MIC [21] [µM] | MIC90 [22] [µM] | MIC [23] [µM] | other results
O=C(NCCN1CCCC1)c1cc(NCCN2CCOCC2)nc2ccc(Cl)cc12 | 100 |  |  |  |  |  |  |  |  |  |  |  |  |  |  |  |  |  |  | CC50 (MRC5): 33.5 µM; inhibition (Plasmodium berghei): Series known to be active; inhibition (Plasmodium falciparum [2]): Series known to be active
O=C(NC1CC1)c1ccc(CSCc2ccccc2Cl)o1 | 1420 |  |  |  |  |  |  |  |  |  |  |  |  |  |  |  |  |  |  | IC50 (Plasmodium falciparum [3]): > 2000 nM; Inhibition (Plasmodium berghei): 96%; inhibition at 10 µM (HepG2 [4]): 33%; Inhibition (Plasmodium falciparum [2]): 14.9%
Cc1cc(NCC(C)C)c2[nH]nc(-c3ccccc3)c2n1 | 1400 |  |  |  |  |  |  |  |  |  |  |  |  |  |  |  |  |  |  | IC50 (Plasmodium falciparum [5]): 2380 nM; inhibition at 10 µM (HepG2 [4]): 9%
Cc1ccc(-c2cc(C(=O)Nc3cccnc3)c3cc(Br)ccc3n2)cc1 | 100 |  |  |  |  |  |  |  |  |  |  |  |  |  |  |  |  |  |  | CC50 (MRC5): 20 µM; inhibition (Plasmodium berghei): Series known to be active; inhibition (Plasmodium falciparum [2]): Series known to be active
O=C(NC1=NCCS1)c1sc2cc(F)ccc2c1Cl |  | > 50 | > 50 | > 100 | 3.12 (≈ 0.982 µg/mL) | 12.5 (≈ 3.93 µg/mL) | 0.6 (≈ 0.189 µg/mL) | 9.4 (≈ 2.96 µg/mL) | > 50 | 3.12 (≈ 0.982 µg/mL) | 6.25 (≈ 1.97 µg/mL) | 39.3 (≈ 12.4 µg/mL) | 3.13 (≈ 0.985 µg/mL) | 1.2 (≈ 0.378 µg/mL) | > 100 | 3.13 (≈ 0.985 µg/mL) | > 50 | 12.5 (≈ 3.93 µg/mL) | > 50 | 
O=C(Nc1nnc(-c2ccc(Cl)s2)o1)c1ccc(Cl)s1 |  | 6.25 (≈ 2.16 µg/mL) | 12.5 (≈ 4.33 µg/mL) | 35.2 (≈ 12.2 µg/mL) | > 50 | > 50 | 0.78 (≈ 0.27 µg/mL) | 9.4 (≈ 3.25 µg/mL) | 9.4 (≈ 3.25 µg/mL) | 6.5 (≈ 2.25 µg/mL) | 6.25 (≈ 2.16 µg/mL) | 2.76 (≈ 0.956 µg/mL) | 3.13 (≈ 1.08 µg/mL) | 1.2 (≈ 0.415 µg/mL) | 50.1 | 6.25 (≈ 2.16 µg/mL) | 4.7 (≈ 1.63 µg/mL) | 6.25 (≈ 2.16 µg/mL) | 9.4 (≈ 3.25 µg/mL) | 
O=C(C(Cc1c[nH]c2ccccc12)NS(=O)(=O)c1ccc(Cl)cc1)N1CCCCC1 (stereo unspecified) | > 2000 |  |  |  |  |  |  |  |  |  |  |  |  |  |  |  |  |  |  | CC20 (HepG2 [24]): 21.9 µM; IC50 (Plasmodium falciparum [3]): 2000 nM; Inhibition (Plasmodium berghei): 0%; inhibition at 10 µM (HepG2 [4]): 9%; Inhibition (Plasmodium falciparum [2]): 23%
O=C1O[C@@H](COc2ccon2)CN1c1cc(F)c(C2=CCN(Cc3ccccc3)CC2)c(F)c1 |  | 0.78 (≈ 0.365 µg/mL) | 1.56 (≈ 0.729 µg/mL) | 3.51 (≈ 1.64 µg/mL) | 25 (≈ 11.7 µg/mL) | 25 (≈ 11.7 µg/mL) | 0.78 (≈ 0.365 µg/mL) | 0.39 (≈ 0.182 µg/mL) | 0.6 (≈ 0.28 µg/mL) | 6.25 (≈ 2.92 µg/mL) | 1.56 (≈ 0.729 µg/mL) | 2.88 (≈ 1.35 µg/mL) | 1.2 (≈ 0.561 µg/mL) | 1.56 (≈ 0.729 µg/mL) | 30.4 | 0.6 (≈ 0.28 µg/mL) | 0.78 (≈ 0.365 µg/mL) | 6.25 (≈ 2.92 µg/mL) | 0.39 (≈ 0.182 µg/mL) | 
Nc1nc2cc(-c3cncc(Oc4ccc(F)cc4)c3)ccc2[nH]1 |  | 25 (≈ 8.01 µg/mL) | 19 (≈ 6.09 µg/mL) | 9.89 (≈ 3.17 µg/mL) | 25 (≈ 8.01 µg/mL) | 25 (≈ 8.01 µg/mL) | 6.25 (≈ 2 µg/mL) | 19 (≈ 6.09 µg/mL) | 19 (≈ 6.09 µg/mL) | 6.25 (≈ 2 µg/mL) | 12.5 (≈ 4 µg/mL) | 41.2 (≈ 13.2 µg/mL) | 12.5 (≈ 4 µg/mL) | 6.25 (≈ 2 µg/mL) | 31.5 | 12.5 (≈ 4 µg/mL) | 19 (≈ 6.09 µg/mL) | 6.25 (≈ 2 µg/mL) | 19 (≈ 6.09 µg/mL) | 
O=C(c1[nH]nc2c1CCCC2)N1CCN(Cc2ccc3c(c2)OCO3)CC1 |  | > 50 | 19 (≈ 7 µg/mL) | > 100 | > 50 | > 50 | 0.39 (≈ 0.144 µg/mL) | 4.7 (≈ 1.73 µg/mL) | > 50 | 1.5 (≈ 0.553 µg/mL) | 4.7 (≈ 1.73 µg/mL) | > 15.5 | 0.78 (≈ 0.287 µg/mL) | 0.78 (≈ 0.287 µg/mL) | > 100 | 1.56 (≈ 0.575 µg/mL) | 37 (≈ 13.6 µg/mL) | 6.25 (≈ 2.3 µg/mL) | > 50 | 
CC(=O)NCC1CN(c2ccc(-c3ccc(CNCc4cn[nH]n4)cc3)c(F)c2)C(=O)O1 (stereo unspecified) |  | 0.3 (≈ 0.132 µg/mL) | 0.3 (≈ 0.132 µg/mL) | 0.51 (≈ 0.224 µg/mL) | 1.5 (≈ 0.658 µg/mL) | 1.5 (≈ 0.658 µg/mL) | 0.1 (≈ 0.0438 µg/mL) | 0.39 (≈ 0.171 µg/mL) | 0.39 (≈ 0.171 µg/mL) | 0.19 (≈ 0.0833 µg/mL) | 0.1 (≈ 0.0438 µg/mL) | 0.31 (≈ 0.136 µg/mL) | 0.3 (≈ 0.132 µg/mL) | 0.15 (≈ 0.0658 µg/mL) | > 100 | 0.39 (≈ 0.171 µg/mL) | 0.2 (≈ 0.0877 µg/mL) | 0.39 (≈ 0.171 µg/mL) | 0.3 (≈ 0.132 µg/mL) | 
COc1cccc(OC)c1C(=O)Nc1ccc(Cl)c(-c2nc3ccccc3s2)c1 |  | 25 (≈ 10.6 µg/mL) | 12.5 (≈ 5.31 µg/mL) | 26.1 (≈ 11.1 µg/mL) | > 50 | > 50 | 6.25 (≈ 2.66 µg/mL) | 37 (≈ 15.7 µg/mL) | 37 (≈ 15.7 µg/mL) | > 50 | 12.5 (≈ 5.31 µg/mL) | 55.1 (≈ 23.4 µg/mL) | 12.5 (≈ 5.31 µg/mL) | 9.4 (≈ 3.99 µg/mL) | > 100 | 19 (≈ 8.07 µg/mL) | 25 (≈ 10.6 µg/mL) | > 50 | 37 (≈ 15.7 µg/mL) | 
CC1=NN(c2nc3ccccc3s2)C(=O)C1Cc1cccc2ccccc12 (stereo unspecified) |  | 12.5 (≈ 4.64 µg/mL) | 12.5 (≈ 4.64 µg/mL) | 96.7 (≈ 35.9 µg/mL) | 12.5 (≈ 4.64 µg/mL) | 12.5 (≈ 4.64 µg/mL) | 1.56 (≈ 0.579 µg/mL) | 25 (≈ 9.29 µg/mL) | 25 (≈ 9.29 µg/mL) | 6.25 (≈ 2.32 µg/mL) | 12.5 (≈ 4.64 µg/mL) | > 100 | 12.5 (≈ 4.64 µg/mL) | 3.13 (≈ 1.16 µg/mL) | 21.9 | 19 (≈ 7.06 µg/mL) | 12.5 (≈ 4.64 µg/mL) | 12.5 (≈ 4.64 µg/mL) | 19 (≈ 7.06 µg/mL) | 
